Earlier results as cited in patent US8076449B2, “Therapeutic agents of colivelin for neurodegenerative diseases” (Tomohiro Chiba, priority 2004, dated 2011).

Experiments:
[1] = test system: primary cultured cortical neurons treated with Aβ (1-43); settings: Aβ (1-43) neurotoxicity; stated as known fact; cited from earlier work
[2] = test system: F11 cells transformed with M146L-PS1; settings: as already reported; cited from earlier work

HNG: Humanin (HN) derivative whose serine residue at the position 14 is replaced by glycine (MAPRGFSCLLLLTGEIDLPVKRRA; Humanin; UniProt Q8IVG9 1-24, looked up, variant S14G)
concentration exerting complete protective action [1]: 10 nM | concentration completely suppressing cell death caused by M146L-PS1 [2]: 100 nM
